Experimental data as given in ChEMBL document CHEMBL3612045, “3-Benzamides and 3,4,5-trimethoxyphenyl amines as calcium channel blockers” (Bioorg Med Chem, 2015).
Activity calls are given as the source filed them.

Columns and labels:
[1] = biological target: T1, Voltage-dependent T-type calcium channel subunit alpha-1G (Homo sapiens, UniProt O43497); experiment: Inhibition of Cav3.1 channel (unknown origin) assessed as reduction in peak currents at 10 uM by whole cell patch-clamp method
[2] = biological target: T1, Voltage-dependent T-type calcium channel subunit alpha-1G; experiment: Inhibition of Cav3.1 channel (unknown origin) assessed as reduction in peak currents by whole cell patch-clamp method
[3] = biological target: T2, Voltage-dependent N-type calcium channel subunit alpha-1B (Homo sapiens, UniProt Q00975); experiment: Inhibition of Cav2.2 channel (unknown origin) assessed as reduction in peak currents at 10 uM by whole cell patch-clamp method
Target sequence in this assay (Q00975 whole entry, looked up): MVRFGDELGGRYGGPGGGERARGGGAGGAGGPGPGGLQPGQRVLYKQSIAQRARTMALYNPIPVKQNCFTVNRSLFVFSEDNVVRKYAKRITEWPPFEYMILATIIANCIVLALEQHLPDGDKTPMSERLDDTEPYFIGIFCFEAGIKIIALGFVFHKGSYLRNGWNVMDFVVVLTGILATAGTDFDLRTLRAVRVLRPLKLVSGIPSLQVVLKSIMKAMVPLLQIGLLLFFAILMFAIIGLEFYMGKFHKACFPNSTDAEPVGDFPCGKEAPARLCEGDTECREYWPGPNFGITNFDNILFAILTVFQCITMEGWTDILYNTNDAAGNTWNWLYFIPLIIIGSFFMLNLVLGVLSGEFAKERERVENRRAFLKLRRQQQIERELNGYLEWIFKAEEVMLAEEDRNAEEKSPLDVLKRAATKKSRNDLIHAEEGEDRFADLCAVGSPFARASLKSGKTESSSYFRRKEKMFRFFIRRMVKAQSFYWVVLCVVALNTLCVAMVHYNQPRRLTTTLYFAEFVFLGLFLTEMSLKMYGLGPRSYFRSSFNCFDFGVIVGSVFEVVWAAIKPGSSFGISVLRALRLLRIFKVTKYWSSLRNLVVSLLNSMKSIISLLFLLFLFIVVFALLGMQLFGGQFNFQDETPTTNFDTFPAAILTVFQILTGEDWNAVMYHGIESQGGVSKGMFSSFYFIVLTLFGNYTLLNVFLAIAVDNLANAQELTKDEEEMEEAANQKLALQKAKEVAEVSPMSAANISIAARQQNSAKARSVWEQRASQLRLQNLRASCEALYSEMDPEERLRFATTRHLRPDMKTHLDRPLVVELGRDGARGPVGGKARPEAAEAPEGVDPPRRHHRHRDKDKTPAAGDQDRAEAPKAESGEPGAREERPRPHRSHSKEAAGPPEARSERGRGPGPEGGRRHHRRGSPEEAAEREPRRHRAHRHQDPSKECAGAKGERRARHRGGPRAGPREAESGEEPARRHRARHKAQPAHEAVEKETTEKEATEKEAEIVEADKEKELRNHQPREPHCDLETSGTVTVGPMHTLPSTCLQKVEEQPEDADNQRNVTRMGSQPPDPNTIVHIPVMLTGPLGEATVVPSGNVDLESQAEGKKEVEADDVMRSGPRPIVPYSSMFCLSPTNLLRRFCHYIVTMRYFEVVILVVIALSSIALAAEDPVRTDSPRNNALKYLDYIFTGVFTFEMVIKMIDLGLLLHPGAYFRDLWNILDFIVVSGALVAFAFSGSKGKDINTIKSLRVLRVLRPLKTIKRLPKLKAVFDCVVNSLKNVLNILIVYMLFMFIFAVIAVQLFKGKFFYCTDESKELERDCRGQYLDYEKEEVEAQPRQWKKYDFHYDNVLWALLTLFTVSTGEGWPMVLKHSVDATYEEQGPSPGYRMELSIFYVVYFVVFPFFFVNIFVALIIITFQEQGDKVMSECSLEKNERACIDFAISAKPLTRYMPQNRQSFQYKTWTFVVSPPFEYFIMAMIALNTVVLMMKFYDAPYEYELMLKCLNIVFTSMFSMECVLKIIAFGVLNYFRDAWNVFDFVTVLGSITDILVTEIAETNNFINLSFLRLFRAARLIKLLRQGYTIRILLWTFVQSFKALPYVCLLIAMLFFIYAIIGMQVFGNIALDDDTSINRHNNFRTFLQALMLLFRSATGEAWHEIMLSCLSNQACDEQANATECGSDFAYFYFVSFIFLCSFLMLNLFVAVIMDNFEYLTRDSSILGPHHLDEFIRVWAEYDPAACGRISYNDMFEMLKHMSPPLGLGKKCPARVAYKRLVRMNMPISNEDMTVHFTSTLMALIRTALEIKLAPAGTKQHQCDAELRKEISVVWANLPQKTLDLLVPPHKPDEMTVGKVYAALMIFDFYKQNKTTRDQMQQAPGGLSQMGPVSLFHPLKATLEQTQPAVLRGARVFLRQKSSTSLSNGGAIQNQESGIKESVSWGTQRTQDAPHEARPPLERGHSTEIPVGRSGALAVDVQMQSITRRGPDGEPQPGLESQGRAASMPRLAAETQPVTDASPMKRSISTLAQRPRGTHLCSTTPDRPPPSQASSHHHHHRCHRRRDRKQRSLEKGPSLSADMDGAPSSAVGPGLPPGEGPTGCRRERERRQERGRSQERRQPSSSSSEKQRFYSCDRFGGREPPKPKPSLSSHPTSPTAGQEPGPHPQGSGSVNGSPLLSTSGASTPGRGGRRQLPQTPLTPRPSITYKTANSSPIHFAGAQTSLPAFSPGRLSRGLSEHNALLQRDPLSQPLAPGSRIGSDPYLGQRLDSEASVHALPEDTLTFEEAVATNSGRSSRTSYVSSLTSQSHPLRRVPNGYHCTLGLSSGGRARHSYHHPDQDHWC

Rattus norvegicus [4] = experiment: Analgesic activity in Sprague-Dawley rat model of spinal cord injury-induced neuropathic pain assessed as reduction in mechanical allodynia by measuring paw withdrawal threshold at 50 ug dosed intrathecally measured after 30 mins (reference value: 2.8 +/- 0.4 g); type: functional
Rattus norvegicus [5] = experiment: Analgesic activity in Sprague-Dawley rat model of spinal cord injury-induced neuropathic pain assessed as reduction in mechanical allodynia by measuring paw withdrawal threshold at 100 ug dosed intrathecally measured after 30 mins (reference value: 2.8 +/- 0.4 g); type: functional
Rattus norvegicus [6] = experiment: Analgesic activity in Sprague-Dawley rat model of spinal cord injury-induced neuropathic pain assessed as reduction in mechanical allodynia by measuring paw withdrawal threshold at 10 ug dosed intrathecally measured after 30 mins (reference value: 2.8 +/- 0.4 g); type: functional
Rattus norvegicus [7] = experiment: Analgesic activity in Sprague-Dawley rat model of spinal cord injury-induced neuropathic pain assessed as reduction in thermal hyperalgesia by measuring paw withdrawal latency time at 50 ug dosed intrathecally measured after 30 mins (reference value: […]); type: functional
Rattus norvegicus [8] = experiment: Analgesic activity in Sprague-Dawley rat model of spinal cord injury-induced neuropathic pain assessed as reduction in thermal hyperalgesia by measuring paw withdrawal latency time at 100 ug dosed intrathecally measured after 30 mins (reference value: […]); type: functional
Rattus norvegicus [9] = experiment: Analgesic activity in Sprague-Dawley rat model of spinal cord injury-induced neuropathic pain assessed as reduction in thermal hyperalgesia by measuring paw withdrawal latency time at 10 ug dosed intrathecally measured after 30 mins (reference value: […]); type: functional
[10] = biological target: T2, Voltage-dependent N-type calcium channel subunit alpha-1B; experiment: Inhibition of Cav2.2 channel (unknown origin) assessed as reduction in peak currents by whole cell patch-clamp method
Target sequence in this assay (Q00975 whole entry): as the sequence (Q00975 whole entry, looked up) above

Rattus norvegicus [11] = experiment: Effect on hind limb locomotion in Sprague-Dawley rat model of spinal cord injury-induced neuropathic pain assessed as Basso-Beattie-Bresnahan scores at 10 to 100 ug dosed via intrathecal route; type: ADME, organism-based, Hindlimb; conditions: in vivo, icv_or_intrathecal

T1 sequence (O43497 whole entry): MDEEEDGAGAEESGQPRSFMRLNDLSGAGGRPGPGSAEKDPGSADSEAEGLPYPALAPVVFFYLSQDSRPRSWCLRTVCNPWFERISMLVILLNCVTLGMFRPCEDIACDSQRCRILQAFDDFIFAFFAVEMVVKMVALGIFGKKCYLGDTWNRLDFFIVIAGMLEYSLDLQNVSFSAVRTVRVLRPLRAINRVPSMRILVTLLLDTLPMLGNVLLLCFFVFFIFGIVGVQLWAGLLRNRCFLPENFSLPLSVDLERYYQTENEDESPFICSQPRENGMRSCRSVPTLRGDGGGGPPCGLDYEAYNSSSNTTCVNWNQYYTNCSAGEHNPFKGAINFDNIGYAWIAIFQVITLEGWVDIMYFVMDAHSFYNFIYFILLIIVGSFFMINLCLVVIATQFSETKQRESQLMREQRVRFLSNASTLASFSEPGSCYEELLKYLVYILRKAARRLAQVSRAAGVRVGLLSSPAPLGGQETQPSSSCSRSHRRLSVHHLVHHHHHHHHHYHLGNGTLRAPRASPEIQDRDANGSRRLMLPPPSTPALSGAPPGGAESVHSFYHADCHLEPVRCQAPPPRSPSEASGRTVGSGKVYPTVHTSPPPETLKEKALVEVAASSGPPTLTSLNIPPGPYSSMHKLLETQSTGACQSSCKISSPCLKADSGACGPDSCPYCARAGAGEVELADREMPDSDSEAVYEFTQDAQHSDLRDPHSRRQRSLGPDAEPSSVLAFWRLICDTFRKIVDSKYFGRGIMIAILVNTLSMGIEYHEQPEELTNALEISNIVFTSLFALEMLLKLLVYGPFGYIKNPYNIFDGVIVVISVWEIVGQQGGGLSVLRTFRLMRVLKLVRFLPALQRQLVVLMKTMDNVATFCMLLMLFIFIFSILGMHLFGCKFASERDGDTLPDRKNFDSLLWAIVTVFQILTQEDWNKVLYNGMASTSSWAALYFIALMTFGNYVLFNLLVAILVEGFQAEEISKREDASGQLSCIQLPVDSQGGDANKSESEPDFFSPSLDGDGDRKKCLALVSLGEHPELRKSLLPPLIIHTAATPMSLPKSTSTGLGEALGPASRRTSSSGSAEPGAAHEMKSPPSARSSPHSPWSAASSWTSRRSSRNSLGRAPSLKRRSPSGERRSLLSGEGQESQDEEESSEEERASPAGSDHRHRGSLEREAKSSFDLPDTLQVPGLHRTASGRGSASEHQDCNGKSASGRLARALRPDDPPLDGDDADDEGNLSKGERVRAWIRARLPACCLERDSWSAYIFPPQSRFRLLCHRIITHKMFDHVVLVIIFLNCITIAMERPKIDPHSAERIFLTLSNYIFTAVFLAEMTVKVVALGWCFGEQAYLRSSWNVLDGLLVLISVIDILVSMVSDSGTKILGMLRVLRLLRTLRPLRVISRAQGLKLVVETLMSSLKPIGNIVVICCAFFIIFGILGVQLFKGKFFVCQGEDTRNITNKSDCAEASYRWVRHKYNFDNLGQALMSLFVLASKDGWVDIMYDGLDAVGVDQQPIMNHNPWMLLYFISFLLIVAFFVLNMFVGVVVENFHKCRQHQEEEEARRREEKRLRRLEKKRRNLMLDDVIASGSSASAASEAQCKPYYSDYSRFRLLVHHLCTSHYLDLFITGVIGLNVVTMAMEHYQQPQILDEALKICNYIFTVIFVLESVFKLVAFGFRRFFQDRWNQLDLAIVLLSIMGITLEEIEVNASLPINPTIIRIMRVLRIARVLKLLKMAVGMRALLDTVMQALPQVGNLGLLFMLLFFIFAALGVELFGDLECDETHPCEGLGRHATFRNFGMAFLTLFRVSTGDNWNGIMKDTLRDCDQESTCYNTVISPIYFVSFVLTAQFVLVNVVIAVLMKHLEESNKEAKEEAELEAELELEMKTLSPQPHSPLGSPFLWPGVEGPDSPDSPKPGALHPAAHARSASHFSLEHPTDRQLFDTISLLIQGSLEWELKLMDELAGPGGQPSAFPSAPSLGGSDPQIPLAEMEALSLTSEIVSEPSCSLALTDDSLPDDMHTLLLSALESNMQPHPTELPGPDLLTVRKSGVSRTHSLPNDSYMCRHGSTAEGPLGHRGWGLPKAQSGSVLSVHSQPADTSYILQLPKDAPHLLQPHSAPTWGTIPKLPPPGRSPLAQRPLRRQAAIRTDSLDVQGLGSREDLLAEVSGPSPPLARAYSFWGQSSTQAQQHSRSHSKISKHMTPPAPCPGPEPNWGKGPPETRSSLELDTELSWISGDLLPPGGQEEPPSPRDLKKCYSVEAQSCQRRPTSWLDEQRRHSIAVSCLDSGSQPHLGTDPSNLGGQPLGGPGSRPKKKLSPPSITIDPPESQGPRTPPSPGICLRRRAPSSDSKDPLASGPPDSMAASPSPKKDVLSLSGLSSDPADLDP

Compound: NC(=O)c1cccc(NCc2ccc(-c3ccc(Cl)cc3)o2)c1
- inhibition [1]: 14.5%

Compound: N#Cc1ccc(Oc2ccc(-c3ccc(CNc4cccc(C(N)=O)c4)o3)cc2)cc1
- inhibition [1]: 53%
- IC50 [2]: 7.4 µM
- inhibition [3]: 21.6%
- Activity (Rattus norvegicus [4]): inactive
- Activity (Rattus norvegicus [5]): inactive
- Activity (Rattus norvegicus [6]): inactive
- Activity (Rattus norvegicus [7]): inactive
- Activity (Rattus norvegicus [8]): inactive
- Activity (Rattus norvegicus [9]): inactive

Compound: NC(=O)c1cccc(NCc2cc(-c3ccc(Cl)cc3)on2)c1
- inhibition [1]: 25.2%

Compound: COc1cc(CNCc2ccc(-c3ccc(Cl)cc3)o2)cc(OC)c1OC
- inhibition [1]: 91.3%
- IC50 [2]: 1.9 µM
- inhibition [3]: 80.2%
- IC50 [10]: 4.3 µM
- Activity (Rattus norvegicus [4]): 9.16 g
- Activity (Rattus norvegicus [5]): 11.1 g
- Activity (Rattus norvegicus [6]): 2.6 g
- Time (Rattus norvegicus [7]): 8.3 s
- Time (Rattus norvegicus [8]): 8.9 s
- Time (Rattus norvegicus [9]): 5.8 s
- Activity (Rattus norvegicus [11]): Non-toxic

Compound: COc1ccc(-c2ccc(CNCc3cc(OC)c(OC)c(OC)c3)o2)cc1Cl
- inhibition [1]: 77.6%
- IC50 [2]: 2.4 µM
- inhibition [3]: 70.6%
- IC50 [10]: 5.9 µM

Compound: COc1cc(CNCc2ccc(Oc3ccc(C#N)cc3)cc2)cc(OC)c1OC
- inhibition [1]: 60.4%
- IC50 [2]: 6.4 µM
- inhibition [3]: 54.9%
- IC50 [10]: 9.4 µM

Compound: COc1cc(CNCc2ccc(-c3cccc(C(F)(F)F)c3)o2)cc(OC)c1OC
- inhibition [1]: 86.6%
- IC50 [2]: 2.5 µM
- inhibition [3]: 81.6%
- IC50 [10]: 6.7 µM

Compound: COc1cc(CNCc2ccc(N3CCOCC3)cc2)cc(OC)c1OC
- inhibition [1]: 9.8%

Compound: COc1cc(CNCc2ccc(-c3cncnc3)cc2)cc(OC)c1OC
- inhibition [1]: 38.3%

Compound: COc1ccc(-c2ccc(CNc3cccc(C(N)=O)c3)o2)cc1Cl
- inhibition [1]: 41.6%

Compound: NC(=O)c1cccc(NCc2c[nH]c3ccc(Cl)cc23)c1
- inhibition [1]: 39.9%

Compound: NC(=O)c1cccc(NCc2ccc(-c3cccc(C(F)(F)F)c3)o2)c1
- inhibition [1]: 39.3%

Compound: COc1cc(CNCc2ccc(-c3ccncc3)cc2)cc(OC)c1OC
- inhibition [1]: 21.9%

Compound: COc1cc(CNCc2c[nH]c3ccc(Cl)cc23)cc(OC)c1OC
- inhibition [1]: 64.2%
- IC50 [2]: 5.2 µM
- inhibition [3]: 75.2%
- IC50 [10]: 9.5 µM

Compound: NC(=O)c1cccc(NCc2ccc(N3CCOCC3)cc2)c1
- inhibition [1]: 4.1%
